Data set [1] has as its system Dirofilaria immitis third-stage larvae. Put plainly: In vitro assay 4: Dirofilaria immitis (DIROIM L4), motility of larvae. Particulars: 72 h.
The subject of data set [2] is Nippostrongylus brasiliensis. Put plainly: In vitro assay 2: Nippostrongylus brasiliensis (NIPOBR), acetylcholine esterase readout. The note with it: adult worms, read-out: activity (reduction of AChE compared to negative control); for inhibition at 1 µg/mL: 1 μg/ml (1 ppm); for inhibition at 10 µg/mL: 10 μg/ml (10 ppm). The method, boiled down: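 Adult worms were washed in saline with antibiotics/antimycotic, then incubated with compound at 10 μg/ml (10 ppm) or 1 μg/ml (1 ppm) final, from DMSO stock. Acetylcholine esterase activity in a medium aliquot, compared with a negative control, served as the anthelmintic readout.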

The subject of another data set is Cooperia curticei. Briefly: In vitro assay 5: Cooperia curticei (COOPCU), larval mortality. The note with it: 120 h, read-out: activity (percentage of larval mortality).
Data set [3] in a line: log P by HPLC on reversed phase columns (Method L0; [a] acidic, [b] neutral range).
Protocol: Calibration was done with straight-chain alkan-2-ones (with 3 to 16 carbon atoms) with known log P values (measurement of log P values using retention times with linear interpolation between successive alkanones). Lambda-max-values were determined using UV-spectra from 200 nm to 400 nm and the peak values of the chromatographic signals.
In data set [4] the test system is Dirofilaria immitis microfilariae. Put plainly: In vitro assay 3: Dirofilaria immitis microfilariae (DIROIM L1), motility. The note with it: 72 h, reduction of motility vs negative control, 72 h incubation.
Data set [5] has as its system Litomosoides sigmodontis third-stage larvae. Put plainly: In vitro assay 7: Litomosoides sigmodontis L3 (LTMOSI), motility. The note with it: 72 h, reduction of motility vs negative control, 72 h incubation.
Protocol: In Vitro Assay 7: Litomosoides Siqmodontis L3 (LTMOSI)
10 Litomosoides sigmodontis third-stage larvae, which were freshly isolated from the pleural cavity of an infected rodent, were added to wells of a microtitre plate containing a nutrient medium and the test compound in DMSO. Compounds were tested in concentration-response assay in duplicate. Larvae exposed to DMSO and no test compounds were used as negative controls. Larvae were evaluated after 72 h of incubation with the compound. Efficacy was determined as the reduction of motility in comparison to the negative control. Based on the evaluation of a wide concentration range, concentration-response curves as well as ECso-values were calculated.
Another data set concerns Haemonchus contortus. Briefly: In vitro assay 6: Haemonchus contortus (HAEMCO), larval mortality. Particulars: Haemonchus contortus, 120 h, read-out: activity (percentage of larval mortality).
In the next data set the target is C. elegans Slo-1a (Caenorhabditis elegans, UniProt Q95V25). Put plainly: In vitro assay 1: C. elegans Slo-1a, action at a recombinant C. elegans CHO cell line (membrane potential measurement).
C. elegans Slo-1a, sequence (Q95V25 whole entry): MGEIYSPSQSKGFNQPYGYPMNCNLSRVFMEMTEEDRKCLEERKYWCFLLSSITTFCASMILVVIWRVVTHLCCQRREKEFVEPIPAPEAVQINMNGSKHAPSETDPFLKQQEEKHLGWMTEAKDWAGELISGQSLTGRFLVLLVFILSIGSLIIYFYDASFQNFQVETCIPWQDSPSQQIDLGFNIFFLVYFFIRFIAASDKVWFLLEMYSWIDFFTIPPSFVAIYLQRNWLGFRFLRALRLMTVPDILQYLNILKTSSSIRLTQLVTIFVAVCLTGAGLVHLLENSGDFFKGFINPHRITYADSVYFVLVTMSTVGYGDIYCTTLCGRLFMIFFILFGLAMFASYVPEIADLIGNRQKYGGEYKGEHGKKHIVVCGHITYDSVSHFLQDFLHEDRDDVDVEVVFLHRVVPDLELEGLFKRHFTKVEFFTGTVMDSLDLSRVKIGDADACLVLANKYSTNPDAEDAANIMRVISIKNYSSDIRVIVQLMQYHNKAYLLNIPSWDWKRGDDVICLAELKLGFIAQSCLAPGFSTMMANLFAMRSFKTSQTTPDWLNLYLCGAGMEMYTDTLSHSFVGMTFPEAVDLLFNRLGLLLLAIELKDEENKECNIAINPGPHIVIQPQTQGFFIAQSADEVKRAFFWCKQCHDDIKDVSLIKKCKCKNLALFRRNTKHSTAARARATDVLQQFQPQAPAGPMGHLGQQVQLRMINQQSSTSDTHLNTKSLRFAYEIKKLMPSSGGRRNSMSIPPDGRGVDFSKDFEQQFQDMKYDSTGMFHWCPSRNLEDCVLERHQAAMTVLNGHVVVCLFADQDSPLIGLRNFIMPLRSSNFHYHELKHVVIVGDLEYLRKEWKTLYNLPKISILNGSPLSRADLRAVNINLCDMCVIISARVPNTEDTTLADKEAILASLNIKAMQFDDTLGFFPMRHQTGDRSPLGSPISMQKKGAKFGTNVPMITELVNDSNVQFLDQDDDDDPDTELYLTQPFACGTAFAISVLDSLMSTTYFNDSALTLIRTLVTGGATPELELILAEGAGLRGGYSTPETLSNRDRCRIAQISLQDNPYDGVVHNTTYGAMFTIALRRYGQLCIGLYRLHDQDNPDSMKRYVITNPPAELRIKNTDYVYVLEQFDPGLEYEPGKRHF

Protocol for Cooperia curticei: In Vitro Assay 5: Cooperia curticei (COOPCU)
Solvent: Dimethyl Sulfoxide
Approximately 40 nematode larvae (Cooperia curticei) are transferred into a test tube containing the compound solution.
After 5 days percentage of larval mortality is recorded. 100% efficacy means all larvae are killed; 0% efficacy means no larvae are killed.
Protocol for Haemonchus contortus: In Vitro Assay 6: Haemonchus contortus (HAEMCO)
Solvent: dimethyl sulfoxide
Approximately 40 larvae of the red stomach worm (Haemonchus contortus) are transferred into a test tube containing compound solution.
After 5 days the percentage of larval mortality is recorded. 100% efficacy means all larvae are killed, 0% efficacy means no larvae are killed.

With `COc1c(F)ccc(-c2c(C)nn3c(C(C)C)c(C(=O)N[C@H]4CCOc5ccccc54)cnc23)c1F` [Example 192], the EC50 is < 0.1 µg/mL in data set [1], < 0.1 µg/mL in data set [4], < 0.1 µg/mL in data set [5] and 0.398 nM at C. elegans Slo-1a. Also, the inhibition at 1 µg/mL in data set [2] is > 80%. Besides, in data set [2], the inhibition at 10 µg/mL was > 80%. In addition, the results for the mortality at 20 ppm with Cooperia curticei and with Haemonchus contortus were 100% and 90%, respectively. Further, in data set [3], the chromatographic logP was determined as 4.32.
For the molecule `Cc1nn2c(N(C)C)c(C(=O)N[C@H]3CCOc4ccccc43)cnc2c1-c1cccc(Cl)c1Cl` [Example 518], the EC50 in data set [1] was < 0.1 µg/mL; in data set [4], < 0.1 µg/mL; in data set [5], < 0.1 µg/mL; on C. elegans Slo-1a, 1 nM. Moreover, the inhibition at 1 µg/mL in data set [2] is > 80%. Further, the inhibition at 10 µg/mL in data set [2] is > 80%. Also, the mortality at 20 ppm with Cooperia curticei and in the data set with Haemonchus contortus was 100% each time. In data set [3], the chromatographic logP is 3.94.
As to `Cc1nn2c(C(C)C)c(C(=O)N[C@H]3CCOc4ccccc43)cnc2c1-c1c(F)ccc(Cl)c1F` [Example 255], the EC50 in data set [1] was < 0.1 µg/mL; in data set [4], < 0.1 µg/mL; in data set [5] it was < 0.1 µg/mL; on C. elegans Slo-1a it was 1.58 nM. Further, the inhibition at 1 µg/mL in data set [2] was > 80%. In addition, the inhibition at 10 µg/mL in data set [2] was > 80%. Further, the mortality at 20 ppm in the data set on Cooperia curticei and in the data set on Haemonchus contortus was 90% throughout. Further, the chromatographic logP in data set [3] stood at 4.72.
